We go through eleven molecules from patent publication US6479505B1, “6-arylphenanthridines with PDE-IV inhibiting activity” (Altana Pharma AG, priority 1999, dated 2002).

Structures are written as SMILES.

The subject of one data set is PDE4. Briefly: Inhibition of PDE4 activity (method of Bauer and Schwabe, microtiter plates). The note with it: inhibitory concentration as −log IC50 (mol/l). It is filed as biochemical. The protocol:
The activity test was carried out according to the method of Bauer and Schwabe, which was adapted to microtiter plates (Naunyn-Schmiedeberg's Arch. Pharmacol. 1980, 311, 193-198). The PDE reaction takes place in the first step here. In a second step, the resulting 5′-nucleotide is cleaved by a 5′-nucloetidase of the snake venom of Crotalus atrox to the uncharged nucleoside. In the third step, the nucleoside is separated from the remaining charged substrate on ion-exchange columns. The columns are eluted directly into minivials, into which 2 ml of scintillator fluid are additionally added, for counting using 2 ml of 30 mM ammonium formate (pH 6.0).
The inhibitory values determined for the compounds according to the invention [inhibitory concentration as −log IC50 (mol/l/)] follow from the following Table A, in which the numbers of the compounds correspond to the numbers of the examples.
As to `COc1cc2c(cc1OC)[C@@H]1CCCC[C@@H]1N=C2c1ccc2c(c1)C(=O)c1ccccc1C2=O` [Compound 8, (−)-cis-8,9-Dimethoxy-6-(anthraquinon-2-yl)-1,2,3,4,4a,10b-hexahydrophenanthridine], the “−log IC50” value came to 8.00.
Take `COc1cc2c(cc1OC)[C@@H]1CCCC[C@@H]1N=C2c1ccc2[nH]nnc2c1` [Compound 4, (−)-cis-6-(1H-Benzotriazol-5-yl)-8,9-dimethoxy-1,2,3,4,4a,10b-hexahydrophenanthridine]: the “−log IC50” value came to 7.47.
The same measure, in the same setting: next, `COc1cc2c(cc1OC)[C@@H]1CCCC[C@@H]1N=C2c1ccc2c(c1)S(=O)(=O)c1ccccc1C2=O` [Compound 6, (−)-cis-8,9-Dimethoxy-6-(10,10-dioxothioxanthen-9-on-3-yl)-1,2,3,4,4a,10b-hexahydro-phenanthridine]: 8.39; `COc1cc2c(cc1OC)[C@@H]1CCCC[C@@H]1N=C2c1ccc2ncccc2c1` [Compound 2, (−)-cis-8,9-Dimethoxy-6-quinolin-6-yl-1,2,3,4,4a,10b-hexahydrophenanthridine]: 7.23.
Take `COc1cc2c(cc1OC)[C@@H]1CCCC[C@@H]1N=C2c1ccc2nc(C)[nH]c2c1` [Compound 10, (−)-cis-8,9-Dimethoxy-6-(2-methyl-3H-benzimidazol-5-yl)-1,2,3,4,4a,10b-hexahydrophenanthridine]: the “−log IC50” value amounted to 6.83.
On the same count and under the same terms, the value for `COc1cc2c(cc1OC)[C@@H]1CCCC[C@@H]1N=C2c1ccc2c(c1)OCO2` [Compound 1, (−)-cis-6-Benzo[1,3]dioxol-5-yl-8,9-dimethoxy-1,2,3,4,4a,10b-hexahydrophenanthridine] was 7.28; that for `COc1cc2c(cc1OC)[C@@H]1CCCC[C@@H]1N=C2c1ccc(OC(F)F)c2oc(C(C)C)cc12` [Compound 11, (−)-cis-6-[7-Difluoromethoxy-2-isopropylbenzofuran-4-yl]-8,9-dimethoxy-1,2,3,4,4a,10b-hexahydrophenanthridine] was 8.00.
As for `COc1cc2c(cc1OC)[C@@H]1CCCC[C@@H]1N=C2c1ccc2ccccc2c1` [Compound 5, (−)-cis-8,9-Dimethoxy-6-naphthalen-2-yl-1,2,3,4,4a,10b-hexahydrophenanthridine], the “−log IC50” value was determined as 7.63.
Still for that read-out and setting: next, `COc1cc2c(cc1OC)[C@@H]1CCCC[C@@H]1N=C2c1ccc2c(c1)C(=O)c1ccccc1-2.Cl` [Compound 7, (+)-cis-8,9-Dimethoxy-6-(fluoren-9-on-2-yl)-1,2,3,4,4a,10b-hexahydrophenanthridine hydrochloride]: 7.85; `COc1cc2c(cc1OC)[C@@H]1CCCC[C@@H]1N=C2c1ccc2c(c1)OCCO2` [Compound 3, (−)-cis-8,9-Dimethoxy-6-(2,3-dihydrobenzo[1,4]dioxin-6-yl)-1,2,3,4,4a,10b-hexahydrophenanthridine]: 7.21; `COc1cc2c(cc1OC)[C@@H]1CCCC[C@@H]1N=C2c1ccc2[nH]cnc2c1` [Compound 9, (−)-cis-6-(1H-Benzimidazol-5-yl)-8,9-dimethoxy-1,2,3,4,4a,10b-hexahydrophenanthridine]: 6.76.

Test system in a further data set: not given
Experiment: not given
Conditions: not given
`COc1cc2c(cc1OC)[C@@H]1CCCC[C@@H]1N=C2c1ccc2c(c1)C(=O)c1ccccc1C2=O` [Compound 8, (−)-cis-8,9-Dimethoxy-6-(anthraquinon-2-yl)-1,2,3,4,4a,10b-hexahydrophenanthridine] yielded a melting point of 213 to 214.5 °C.
Still for that read-out and setting: the value for `COc1cc2c(cc1OC)[C@@H]1CCCC[C@@H]1N=C2c1ccc2[nH]nnc2c1` [Compound 4, (−)-cis-6-(1H-Benzotriazol-5-yl)-8,9-dimethoxy-1,2,3,4,4a,10b-hexahydrophenanthridine] was 213 to 214 °C.

Usually melting point stands for the temperature, or range, at which the solid turns liquid.
